Tests used:
[1] = system: normal rat kidney epithelial cells (NRK); test: Cytotoxicity, WST-1 metabolic activity, NRK cells; format: cell-based; conditions: Epithelial cell, 72 h incubation, metabolic activity (WST-1), three experiments
Description: (§1) Stock solutions were prepared by dissolving pure compounds to a final concentration of 20 mM in DMSO. The normal rat kidney epithelial cells (NRK, ATCC no.: CRL-6509) and rat cardiomyoblasts (H9c2, ATCC no.: CRL-1446) were cultured in DMEM medium supplemented with 10% foetal bovine serum (FBS, Invitrogen, Carlsbad, CA, USA). When the cells reached 80% confluence, they were detached in a mild trypsin treatment (0.33 mg/mL trypsin for 5 min at 37 °C), centrifuged (160× g, 4 min), and reseeded in fresh medium to 25% confluence.
(§2) All media were supplemented with 1 IU/mL penicillin and 1 mg/mL streptomycin (both from Cambrex, Liège, Belgium) and incubated in a humidified atmosphere (37 °C, 5% CO2). […]
(§3) […] The plates were further incubated for two hours before the signal was recorded at 450 nm with a reference at 620 nm. […]
(§4) After the recording of WST-1, the cells were then fixed with 2% buffered formaldehyde (pH 7.4) with 0.01 mg/mL of the DNA-specific fluorescent dye, Hoechst 33342. The presence of dead (apoptotic or necrotic) cells was verified via differential interference contrast and fluorescence microscopy as previously described by Oftedal et al. and Myhren et al..
(§5) EC50 values were determined using four-parameter regression analysis described by Viktorsson et al. using SigmaPlot v14 software (Systat Software Inc., San Jose, CA, USA).

[2] = system: acute myeloid leukaemia cell line MOLM13; test: Cytotoxicity, WST-1 metabolic activity, MOLM13 cells; format: cell-based; conditions: Homo sapiens, MOLM-13; 72 h incubation, metabolic activity (WST-1), 3 independent experiments
Description: as §1
The AML cell line MOLM13 (DSMZ no.: ACC554 [24]) was cultured in RPMI-1640 medium enriched with 10% FBS 8mM L-glutamine (Sigma Life Science, London, UK). […]
as §3, §4, §5

[3] = system: rat cardiomyoblasts (H9c2); test: Cytotoxicity, WST-1 metabolic activity, H9c2 cells; format: cell-based; conditions: 72 h incubation, metabolic activity (WST-1), three experiments
Description: as §1, §2, §3, §4, §5

[4] = system: myeloid leukaemia HL 60 cells; conditions: cited from earlier work
[5] = cited from earlier work

SMILES	EC50 [1]	EC50 [2]	EC50 [3]	cytotoxic effects against HL 60 cells [4]	antibacterial activity [5]
Cc1cc2c(c(C)c1CCOC1OC(CO)C(O)C(O)C1O)C(=O)C(C)(C)C2OC(=O)CC(=O)O [Compound 14, 3(R)-O-malonyl pteroside D]	> 200 µM	197.88 ± 0.18 µM	> 200 µM	–	–
CC1=C2C(=CC(C)(C)[C@@H]2O)C(=O)[C@](C)(O)C12CC2 [illudin M]	–	–	–	6 to 100 nM	significant antibacterial activity
CC1=C2C(=C[C@@](C)(CO)[C@@H]2O)C(=O)[C@](C)(O)C12CC2 [illudin S]	–	–	–	–	significant antibacterial activity

Reference: article PMC10708030, “Cytotoxic Natural Products Isolated from Cryptogramma crispa (L.) R. Br” (Molecules, 2023)
